Measurements as given in US7888380B2, “1,2,4-Triazolylaminoaryl (heteroaryl) sulfonamide derivatives” (Janssen Pharmaceutica, N.V., priority 2004, dated 2011).
Where a name gives a salt, the structure may show the parent alone. Read-outs that look alike come from different tables or passages of the source.

Tests used:
CDK2:Cyclin-E = CDK2:Cyclin-E (Homo sapiens, UniProt P24941); experiment: CDK2 Screening Assay (33P-ATP FlashPlate); type: biochemical; settings: 10 μM ATP; >10 or >100 = less than 50% inhibition at highest concentration tested
Description: A kinase reaction mixture was prepared containing 50 mM Tris-HCl pH=8, 10 mM MgCl2, 0.1 mM Na3PO4, 1 mM DTT, 10 μM ATP, 0.025 μM biotinylated histone-H1 peptide substrate and 0.2 μCuries per well ^33P-γ-ATP (2000-3000 Ci/mmol). 70 μL of the kinase reaction mixture was dispensed into the well of a streptavidin coated FlashPlate™ (Cat. # SMP103, NEN, Boston, Mass.). Then 1 μL of test compound stock in 100% DMSO was added to the wells resulting in a final concentration of 1% DMSO in the reaction with a 100 μl final reaction volume. Next, CDK2:Cyclin-E protein was diluted in 50 mM Tris-HCl pH=8.0, 0.1% BSA at a concentration of 1 ng per μL and 30 μL (30 ng enzyme per test well) was added to each well to initiate the reaction. The reaction was incubated for one hour at 30° C. At the end of the 1 h incubation, the reaction was terminated by aspirating the mixture from the plate and washing the wells twice with PBS containing 100 mM EDTA. The histone-H1 biotinylated peptide substrate became immobilized on the Flashplate™ and the incorporation of ^33P-γ-ATP was measured by reading the plate on a scintillation counter. Inhibition of the enzymatic activity of CDK2 was measured by observing a reduced amount of ^33P-γ-ATP incorporated into the immobilized peptide. […]

VEGF-R2 kinase = target: T1, VEGF-R2 kinase (Rattus norvegicus, UniProt O08775); experiment: VEGF-R2 Kinase Screening Assay; type: biochemical; settings: 10 μM ATP; rat VEGF-R2 kinase domain; read-out: IC50 (μM) VEGFR
T1 construct: 6xHis (polyhistidine) (N)
Description: A kinase reaction mixture was prepared containing 50 mM Tris-HCl pH=8, 10 mM MgCl2, 0.1 mM Na3PO4, 1 mM DTT, 10 μM ATP, 0.025 μM biotinylated peptide substrate and 0.8 μCuries per well ^33P-γ-ATP (2000-3000 Ci/mmol). 70 μL of the kinase reaction mixture was dispensed into each well of a streptavidin coated FlashPlate™ (Cat. # SMP103, NEN, Boston, Mass.). Then 1 μL of test compound stock in 100% DMSO was added to the wells resulting in a final concentration of 1% DMSO in the reaction with a 100 μL final reaction volume. Next, soluble rat tyrosine kinase containing an N-terminal 6×HIS tag was diluted in 50 mM Tris-HCl pH=8.0, 0.1% BSA at a concentration of 5 ng per μL and 30 μL (150 ng enzyme per test well) was added to each well to initiate the reaction. The reaction was incubated for one hour at 30° C. At the end of the 1 h incubation, the reaction was terminated by aspirating the reaction mixture from the plate and washing the wells twice with PBS containing 100 mM EDTA. The PLC1 biotinylated peptide substrate became immobilized on the Flashplate™ and the incorporation of ^33P-γ-ATP was measured by reading the plate on a scintillation counter. Inhibition of the enzymatic activity of the VEGF-R2 kinase was measured by observing a reduced amount of ^33P-γ-ATP incorporated into the immobilized peptide.
VEGF-R (vascular endothelial growth factor receptor-2) is a fusion protein containing a polyhistidine tag at the N-terminus followed by amino acids 786-1343 of the rat VEGF-R2 kinase domain (GenBank Accession #U93306). CDK1 (cyclin dependent kinase 1) was isolated from insect cells expressing both the human CDK1 catalytic subunit and its positive regulatory subunit cyclin B (New England Biolabs, Beverly, Mass., Cat. # 6020). CDK2 in complex with cyclin A is commercially available (Upstate Biotech, Lake Placid, N.Y.). The HER2 (human epidermal growth factor receptor-2) construct contains a polyhistidine tag at the N-terminus followed by 24 additional amino acids and begins at amino acid 676 followed by the remainder of the HER2 cytoplasmic domain.

HCT-116 colon carcinoma = experiment: Inhibition of cell proliferation (14C-thymidine incorporation), HCT116; type: cell-based, human
Description: The ability of a test compound to inhibit the proliferation of cell growth was determined by measuring incorporation of ^14C-labelled thymidine into newly synthesized DNA within the cells. This method was used on cell lines derived from carcinomas originating from several tissues such as HeLa cervical adenocarcinoma (American Type Culture Collection (ATCC), Virginia, Cat. #CCL-2), A375 malignant melanoma (ATCC CRL-1619), and HCT-116 colon carcinoma (CCL-247). In this way the effect of a compound on cell growth of cells with many different phenotypes can be determined. Cells were trypsinized and counted and 3000-8000 cells were added to each well of a 96-well CytoStar tissue culture treated scintillating microplate (Amersham #RPNQ0160) in complete medium in a volume of 100 μl. Cells were incubated for 24 hours in complete medium at 37° C. in an atmosphere containing 5% CO2.
Next, 1 μl of test compound in 100% DMSO was added to the wells of the plate. DMSO only was added to control wells. Cells were incubated for 24 more hours in complete medium at 37° C. in an atmosphere containing 5% CO2. Methyl ^14C-thymidine 56 mCi/mmol (NEN #NEC568 or Amersham #CFA532) was diluted in complete medium and 0.2 uCi/well was added to each well of the CytoStar plate in a volume of 20 ul. The plate was incubated for 24 hours at 37° C. plus 5% CO2 in drug plus ^14C-thymidine. The contents of the plate were discarded into a ^14C radioactive waste container by inverting the plate and the plate was washed twice with 200 μl PBS.
200 μl of PBS was added to each well. The top of the plate was sealed with a transparent plate sealer and a white plate backing sealer (Packard #6005199) was applied to the bottom of the plate. The degree of methyl ^14C-thymidine incorporation was quantified on a Packard Top Count.

T1 sequence (O08775 786-1343): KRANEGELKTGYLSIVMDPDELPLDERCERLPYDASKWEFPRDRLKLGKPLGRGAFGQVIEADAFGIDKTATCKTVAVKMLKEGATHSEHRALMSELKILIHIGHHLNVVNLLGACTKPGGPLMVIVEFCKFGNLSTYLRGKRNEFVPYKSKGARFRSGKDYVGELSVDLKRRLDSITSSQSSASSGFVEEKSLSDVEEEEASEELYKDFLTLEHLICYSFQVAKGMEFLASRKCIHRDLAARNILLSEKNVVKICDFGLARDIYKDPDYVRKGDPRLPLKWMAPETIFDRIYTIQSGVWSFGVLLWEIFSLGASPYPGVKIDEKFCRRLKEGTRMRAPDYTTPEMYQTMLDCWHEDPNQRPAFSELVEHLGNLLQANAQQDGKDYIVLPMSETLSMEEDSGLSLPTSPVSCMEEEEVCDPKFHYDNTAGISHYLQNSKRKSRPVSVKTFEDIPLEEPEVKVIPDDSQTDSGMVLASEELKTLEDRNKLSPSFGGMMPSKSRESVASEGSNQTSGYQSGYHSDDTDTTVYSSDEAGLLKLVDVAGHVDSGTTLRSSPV

| Compound | IC50 (CDK2:Cyclin-E) [µM] | IC50 (VEGF-R2 kinase) [µM] | IC50 (HCT-116 colon carcinoma; Homo sapiens, HCT-116) [µM] | IC50 (HCT-116 colon carcinoma) [µM] |
| --- | --- | --- | --- | --- |
| COCCOCCOCC(=O)NS(=O)(=O)c1ccc(Nc2nc(N)n(C(=O)c3c(F)cccc3F)n2)cc1 [Compound 9, 4-[5-amino-1-(2,6-difluoro-benzoyl)-1H-[1,2,4]triazol-3-ylamino]-N-{2-[2-(2-methoxy-ethoxy)-ethoxy]-acetyl}-benzenesulfonamide] | 0.44 | ≥ 100 | > 100 |  |
| CN1CCN(CCC(=O)NS(=O)(=O)c2ccc(Nc3nc(N)n(C(=O)c4c(F)cccc4F)n3)cc2)CC1 [Compound 5, 4-[5-amino-1-(2,6-difluoro-benzoyl)-1H-[1,2,4]triazol-3-ylamino]-N-[3-(4-methyl-piperazin-1-yl)-propionyl]-benzenesulfonamide] | 0.27 | 1.88 | > 10 |  |
| 4-[5-amino-1-(2,6-difluoro-benzoyl)-1H-[1,2,4]triazol-3-ylamino]-N-propionyl-benzenesulfonamide [Compound 20] | 0.28 | 1 |  | > 10 |
| CCCCC(=O)NS(=O)(=O)c1ccc(Nc2nc(N)n(C(=O)c3c(F)cccc3F)n2)cc1 [Compound 18, 4-[5-amino-1-(2,6-difluoro-benzoyl)-1H-[1,2,4]triazol-3-ylamino]-N-pentanoyl-benzenesulfonamide] | 0.47 | 1.54 | > 100 |  |
| Nc1nc(Nc2ccc(S(=O)(=O)NC(=O)[C@@H]3CCCN3)cc2)nn1C(=O)c1c(F)cccc1F [Compound 16, 4-[5-amino-1-(2,6-difluoro-benzoyl)-1H-[1,2,4]triazol-3-ylamino]-N—((S)-pyrrolidine-2-carbonyl)-benzenesulfonamide] | 0.03 | 7.31 | 3.94 |  |
| Nc1nc(Nc2ccc(S(=O)(=O)NC(=O)CCN3CCOCC3)cc2)nn1C(=O)c1c(F)cccc1F [Compound 7, 4-[5-amino-1-(2,6-difluoro-benzoyl)-1H-[1,2,4]triazol-3-ylamino]-N-(3-morpholin-4-yl-propionyl)-benzenesulfonamide] | 0.12 | 1.65 | 50.8 |  |
| CCOC(=O)CCC(=O)NS(=O)(=O)c1ccc(Nc2nc(N)n(C(=O)c3c(F)cccc3F)n2)cc1 [Compound 8, 4-{4-[5-amino-1-(2,6-difluoro-benzoyl)-1H-[1,2,4]triazol-3-ylamino]-benzenesulfonylamino}-4-oxo-butyric acid ethyl ester] | 0.06 | 0.47 | 40.1 |  |
| Nc1nc(Nc2ccc(S(=O)(=O)NC(=O)CCC(=O)O)cc2)nn1C(=O)c1c(F)cccc1F [Compound 1, 4-{4-[5-amino-1-(2,6-difluoro-benzoyl)-1H-[1,2,4]triazol-3-ylamino]-benzenesulfonylamino}-4-oxo-butyric acid] | 0.07 | 1.66 | > 100 |  |
| Nc1nc(Nc2ccc(S(=O)(=O)NC(=O)COCCOCCOCC(=O)O)cc2)nn1C(=O)c1c(F)cccc1F [Compound 12, {2-[2-(2-{4-[5-amino-1-(2,6-difluoro-benzoyl)-1H-[1,2,4]triazol-3-ylamino]-benzenesulfonylamino}-2-oxo-ethoxy)-ethoxy]-ethoxy}-acetic acid.2TFA salt] | 0.08 | 16.8 | > 10 |  |
| CCCC(=O)NS(=O)(=O)c1ccc(Nc2nc(N)n(C(=O)c3c(F)cccc3F)n2)cc1 [Compound 19, 4-[5-amino-1-(2,6-difluoro-benzoyl)-1H-[1,2,4]triazol-3-ylamino]-N-butyryl-benzenesulfonamide] | 0.05 | 0.77 | 11.6 |  |
| CN(C)CC(=O)NS(=O)(=O)c1ccc(Nc2nc(N)n(C(=O)c3c(F)cccc3F)n2)cc1 [Compound 6, 4-[5-amino-1-(2,6-difluoro-benzoyl)-1H-[1,2,4]triazol-3-ylamino]-N-(2-dimethylamino-acetyl)-benzenesulfonamide] | 0.32 | 1.22 | > 10 |  |
| COCCOCCOCC(=O)Nc1nc(Nc2ccc(S(N)(=O)=O)cc2)nn1C(=O)c1c(F)cccc1F [Compound 10, N-[2-(2,6-difluoro-benzoyl)-5-(4-sulfamoyl-phenylamino)-2H-[1,2,4]triazol-3-yl]-2-[2-(2-methoxy-ethoxy)-ethoxy]-acetamide] | 0.3 | 1.76 | > 100 |  |
| Nc1nc(Nc2ccc(S(=O)(=O)NC(=O)Cn3cnnn3)cc2)nn1C(=O)c1c(F)cccc1F [Compound 4, 4-[5-amino-1-(2,6-difluoro-benzoyl)-1H-[1,2,4]triazol-3-ylamino]-N-(2-tetrazol-1-yl-acetyl)-benzenesulfonamide] | 0.43 | 2.34 | > 100 |  |
| Nc1nc(Nc2ccc(S(=O)(=O)NC(=O)[C@@H](N)CC(=O)O)cc2)nn1C(=O)c1c(F)cccc1F [Compound 17, (S)-3-amino-4-{4-[5-amino-1-(2,6-difluoro-benzoyl)-1H-[1,2,4]triazol-3-ylamino]-benzenesulfonylamino}-4-oxo-butyric acid] | 0.09 | 1.56 | 28.4 |  |
| C[C@H](N)C(=O)N[C@@H](C)C(=O)NS(=O)(=O)c1ccc(Nc2nc(N)n(C(=O)c3c(F)cccc3F)n2)cc1.O=C(O)C(F)(F)F.O=C(O)C(F)(F)F.O=C(O)C(F)(F)F [Compound 15, (S)-2-amino-N—((S)-2-{4-[5-amino-1-(2,6-difluoro-benzoyl)-1H-[1,2,4]triazol-3-ylamino]-benzenesulfonylamino}-1-methyl-2-oxo-ethyl)-propionamide 3 TFA salt] | 0.1 | 2.03 | 20.8 |  |
| Nc1nc(Nc2ccc(S(=O)(=O)NC(=O)[C@@H](N)CO)cc2)nn1C(=O)c1c(F)cccc1F [Compound 13, 4-[5-amino-1-(2,6-difluoro-benzoyl)-1H-[1,2,4]triazol-3-ylamino]-N—((S)-2-amino-3-hydroxy-propionyl)-benzenesulfonamide] | 0.14 | 1.54 | 71.2 |  |
| Nc1nc(Nc2ccc(S(=O)(=O)NC(=O)CCCC(=O)O)cc2)nn1C(=O)c1c(F)cccc1F [Compound 11, 5-{4-[5-amino-1-(2,6-difluoro-benzoyl)-1H-[1,2,4]triazol-3-ylamino]-benzenesulfonylamino}-5-oxo-pentanoic acid] | 1.53 | 2.77 | > 100 |  |
